Laboratory results reported in US7038021B2, “Anti-dioxins monoclonal antibody suitable for assaying dioxins in environment and hybridoma producing the same” (priority 2004, dated 2006).
In brackets after ≈: the same amount, converted by molar mass.

How the values were obtained:
[1] = system: monoclonal antibody Dx02-I-0; assay: Cross-reactivity of monoclonal antibody Dx02-I-0 by indirect competitive assay (ELISA, II-1 immobilized); type: binding, mouse; details: for IC50: indirect competitive assay, immobilized II-1, 20% DMSO and 0.01% Triton-X100, room temperature 10 to 30 minutes; for Cross-reactivity: obtained from IC50 values, 1,2,3,7,8-PeCDF = 100; for reactivity (cross-reactivity) of the antibody: assuming the reactivity with 1,2,3,7,8-PeCDF is 100%
Description: According to the method used for determination of the antibody titer, antigen II-1 or II-2 was immobilized onto wells of a microtiter plate and the wells were washed. A solution (300 μl) of Block Ace 4-fold diluted with deionized water was then added to the wells, and the wells were blocked by allowing it to stand at room temperature for 2 hours. The wells were washed three times with the washing solution (300 μl). The supernatant (25 μl) of the culture containing a primary antibody as well as a solution (25 μl) of various concentrations of a phenoxathiin derivative (I-1 or I-2), which is a compound for screening having a structure similar to that of dioxins and having a reduced toxicity, in 20% DMSO and 0.01% Triton-X100, or a solution (25 μl) of various concentrations of dioxins in 20% DMSO and 0.01% Triton-X100, or a solution (25 μl) containing neither the phenoxathiin derivatives nor the dioxins in 20% DMSO and 0.01% Triton-X100 which serves as a control were then added to the wells and mixed in the wells. The wells were allowed to stand at room temperature for 10 to 30 minutes to effect an antigen-antibody reaction.
The wells were washed three times with the washing solution (300 μl). Then, in order to detect the primary antibody which was bound to II-1 or II-2 immobilized onto the plate, a solution (50 μl) of a horseradish peroxidase-labeled anti-mouse IgG (recognizing γ-chain) prepared by 3000-fold diluting with a solution of Block Ace 10-fold diluted with deionized water was added to the wells as a solution of a secondary antibody, and reacted at room temperature for one our. After the wells were again washed three times with the washing solution (300 μl), a TMB solution was added to the wells, and a coloration reaction was effected at room temperature. After 5 to 15 minutes, the reaction was terminated by adding 1 M phosphoric acid (50 μl), and the absorbance at 450 nm was immediately measured using a microplate reader. The ratio (B/B0) of an absorbance value (B) in the well to which one of phenoxathiin derivatives or dioxins was added, to an absorbance value (control OD; B0) in the well to which only a solution of 20% DMSO and 0.01% Triton-X100 was added but neither the phenoxathiin derivatives nor the dioxins were added, was calculated to evaluate the reactivity of the primary antibody. A hybridoma in the well in which a continuously high production of an antibody having a high binding activity against the antigens was recognized was selected, expanded, and cloned by a limiting dilution method.
Using monoclonal antibody Dx02-I-0, the cross-reactivity with 17 kinds of dioxins each having a toxicity value and 12 kinds of coplanar PCBs was evaluated by an indirect competitive assay. II-1 (50 μl) was added to wells in a microtiter plate, and the wells were allowed to stand at room temperature for one hour and then washed. After the wells were blocked, various concentrations of one of dioxins (25 μl) dissolved in 20% DMSO and 0.01% Triton-X100 or a solution (25 μl) of 20% DMSO and 0.01% Triton-X100 not containing any dioxin which serves as a control as well as a solution (25 μl) of the antibody diluted with 0.01 to 0.1% BSA were added to the wells in the plate, and reacted at room temperature for 10 to 30 minutes.
Then, a coloration reaction was effected using a secondary antibody against the antibody bound to the solid phase, i.e. a peroxidase-labeled anti-mouse IgG antibody (recognizing γ-chain) as well as TMB. After the enzyme reaction was terminated, the absorbance at 450 nm was immediately measured. The B/B0 values were plotted for various dioxins, IC50 values were calculated from the resulting figures, and the cross-reactivity of the antibody was obtained from these values (Table 3).

[2] = WHO-TEF, toxicity of 2,3,7,8-TCDD taken as 1; cited from earlier work
[3] = system: antibody of non-patent reference 2; details: assuming the reactivity with 1,2,3,7,8-PeCDF is 100%; cited from earlier work
[4] = system: monoclonal antibody Dx02-I-0; assay: Standard curve by indirect competitive assay, inhibition by 2,3,4,7,8-PeCDF; type: binding, mouse; details: purified antibody Dx02-I-0, immobilized II-1, FIG. 1
Description: II-1 was immobilized onto a microtiter plate at room temperature for one hour, and the plate was washed three Limes with the washing solution (300 μl). A solution (300 μl) of Block Ace prepared by 4-fold diluting with deionized water was then added to the wells, and the wells were blocked at room temperature for 2 hours. The wells were washed three times with the washing solution. […]
The wells were then washed, and a secondary antibody, i.e. a solution (50 μl) of a horseradish peroxidase-labeled anti-mouse IgG (recognizing γ-chain) prepared by 3000-fold diluting with a solution of Block Ace 10-fold diluted with deionized water was added to the wells, and reacted at room temperature for one hour. […] After 5 to 15 minutes, the reaction was terminated by adding 1 M phosphoric acid (50 μl), and the absorbance at 450 nm was immediately measured using a microplate reader. The ratio (B/B0) of an absorbance value (B) in the well to which one of dioxins was added, to control OD (B0) was calculated, and the calculated values were plotted against the concentrations of the added dioxin with single logarithm to obtain a typical sigmoid curve (FIG. 1).

Row | Structure (SMILES) | IC50 [1] [µg/mL] | Cross-reactivity [1] | TEF [2] | Cross-reactivity [3] [%] | reactivity (cross-reactivity) of the antibody [1] [%] | detectable concentration in the assay system [4] [ng/mL]
1 | Clc1c(Cl)c(Cl)c2c(oc3c(Cl)c(Cl)c(Cl)c(Cl)c32)c1Cl [OCDF] | >0.1 | <1 | 0.0001 |  |  | 
2 | Clc1cc2oc3c(Cl)c(Cl)c(Cl)c(Cl)c3c2cc1Cl [1,2,3,4,7,8-HxCDF] | >0.1 | <1 | 0.1 | 45.9 |  | 
3 | Clc1ccc(-c2cc(Cl)c(Cl)c(Cl)c2Cl)cc1 [2,3,4,4′,5-PeCB] | >0.1 | <1 | 0.0005 |  |  | 
4 | Clc1cc2oc3cc(Cl)c(Cl)cc3c2cc1Cl [2,3,7,8-TeCDF] | 0.0123 (≈ 0.0402 µM) | 7 | 0.1 |  |  | 
5 | Clc1ccc(-c2ccc(Cl)c(Cl)c2Cl)cc1Cl [2,3,3′,4,4′-PeCB] | >0.1 | <1 | 0.0001 |  |  | 
6 | Clc1ccc(-c2ccc(Cl)c(Cl)c2)cc1Cl [3,3′,4,4′-TeCB] | >0.1 | <1 | 0.0001 |  |  | 
7 | Clc1ccc(-c2cc(Cl)c(Cl)cc2Cl)cc1Cl [2,3′,4,4′,5-PeCB] | >0.1 | <1 | 0.0001 |  |  | 
8 | Clc1ccc(-c2cc(Cl)c(Cl)c(Cl)c2Cl)cc1Cl [2,3,3′,4,4′,5-HxCB] | >0.1 | <1 | 0.0005 |  |  | 
9 | Clc1cc2c(cc1Cl)Oc1cc(Cl)c(Cl)cc1O2 [2,3,7,8-TeCDD, 2,3,7,8-tetrachlorodibenzo-p-dioxin] | 0.0072 (≈ 0.0224 µM) | 13 | 1 |  | 13 | 
10 | Clc1ccc(-c2cc(Cl)c(Cl)c(Cl)c2)cc1Cl [3,3′,4,4′,5-PeCB] | 0.0537 (≈ 0.165 µM) | 2 | 0.1 |  |  | 
11 | Clc1cc2c(cc1Cl)Oc1c(cc(Cl)c(Cl)c1Cl)O2 [1,2,3,7,8-PeCDD] | 0.0296 (≈ 0.083 µM) | 3 | 1 |  |  | 
12 | Clc1cc(-c2cc(Cl)c(Cl)c(Cl)c2Cl)cc(Cl)c1Cl [2,3,3′,4,4′,5,5′-HpCB] | >0.1 | <1 | 0.0001 |  |  | 
13 | Clc1cc2oc3c(Cl)c(Cl)c(Cl)cc3c2cc1Cl [2,3,4,7,8-PeCDF, 2,3,4,7,8-pentachlorodibenzofuran] | 0.00586 (≈ 0.0172 µM) | 16 |  |  | 16 | ≤ 1
14 | Clc1cc2c(c(Cl)c1Cl)Oc1c(Cl)c(Cl)c(Cl)c(Cl)c1O2 [1,2,3,4,6,7,8-HpCDD] | >0.1 | <1 | 0.01 |  |  | 
15 | Clc1ccc(-c2cc(Cl)c(Cl)c(Cl)c2)c(Cl)c1 [2′,3,4,4′,5-PeCB] | >0.1 | <1 | 0.0001 |  |  | 
16 | Clc1cc(-c2ccc(Cl)c(Cl)c2Cl)cc(Cl)c1Cl [2,3,3′,4,4′,5′-HxCB] | >0.1 | <1 | 0.0005 |  |  | 
17 | Clc1ccc(-c2cc(Cl)c(Cl)c(Cl)c2)cc1 [3,4,4′,5-TeCB] | >0.1 | <1 | 0.0001 |  |  | 
18 | Clc1cc2oc3c(Cl)c(Cl)c(Cl)c(Cl)c3c2c(Cl)c1Cl [1,2,3,4,7,8,9-HpCDF] | 0.00267 (≈ 0.00652 µM) | 34 | 0.01 |  | 34 | 
19 | Clc1cc2c(c(Cl)c1Cl)Oc1c(cc(Cl)c(Cl)c1Cl)O2 [1,2,3,7,8,9-HxCDD] | 0.00106 (≈ 0.00271 µM) | 86 | 0.1 | 39.8 | 86 | 
20 | Clc1c(Cl)c(Cl)c2c(c1Cl)Oc1c(Cl)c(Cl)c(Cl)c(Cl)c1O2 [OCDD] | >0.1 | <1 | 0.0001 |  |  | 
21 | Clc1cc2c(cc1Cl)Oc1c(Cl)c(Cl)c(Cl)c(Cl)c1O2 [1,2,3,4,7,8-HxCDD] | >0.1 | <1 | 0.1 |  |  | 
22 | Clc1cc2oc3cc(Cl)c(Cl)c(Cl)c3c2cc1Cl [1,2,3,7,8-PeCDF] | 0.000915 (≈ 0.00269 µM) | 100 | 0.05 |  |  | 
23 | Clc1cc2c(oc3c(Cl)c(Cl)c(Cl)cc32)c(Cl)c1Cl [2,3,4,6,7,8-HxCDF] | 0.000989 (≈ 0.00264 µM) | 93 | 0.1 | 43.8 | 93 | 
24 | Clc1cc2oc3cc(Cl)c(Cl)c(Cl)c3c2c(Cl)c1Cl [1,2,3,7,8,9-HxCDF] | 0.0355 (≈ 0.0947 µM) | 3 | 0.1 | 42.7 |  | 
25 | Clc1cc2c(oc3c(Cl)c(Cl)c(Cl)c(Cl)c32)c(Cl)c1Cl [1,2,3,4,6,7,8-HpCDF] | >0.1 | <1 | 0.01 |  |  | 
26 | Clc1cc(-c2cc(Cl)c(Cl)c(Cl)c2)cc(Cl)c1Cl [3,3′,4,4′,5,5′-HxCB] | 0.0629 (≈ 0.174 µM) | 1 | 0.01 |  |  | 
27 | Clc1cc2c(oc3cc(Cl)c(Cl)c(Cl)c32)c(Cl)c1Cl [1,2,3,6,7,8-HxCDF] | >0.1 | <1 | 0.1 | 36.6 |  | 
28 | Clc1cc2c(c(Cl)c1Cl)Oc1cc(Cl)c(Cl)c(Cl)c1O2 [1,2,3,6,7,8-HxCDD] | 0.000984 (≈ 0.00252 µM) | 93 | 0.1 |  | 93 | 
29 | Clc1cc(Cl)c(-c2cc(Cl)c(Cl)c(Cl)c2)cc1Cl [2,3′,4,4′,5,5′-HxCB] | >0.1 | <1 | 0.00001 |  |  | 
